Test results from patent US4535081A, “Antiallergic and antiulcer 1-oxo-1H-thiazolo[3,2-a]pyrimidine-2-carboxamides and intermediates therefor” (Pfizer Inc., priority 1983, dated 1985).
Entries after “also recorded” stand apart in the source; their conditions may differ.

Assays:
[1] = system: IgE (reaginic antiserum) PCA reaction; assay: Oral activity in PCA test, IgE; type: in vivo, rat
Protocol: The antiallergy property of the compounds of this invention is evaluated by the passive cutaneous anaphylaxis (PCA) test (Ovary, J. Immun., 81, 355, 1958). In the PCA test, normal animals are injected intradermally (i.d.) with antibodies contained in serum obtained from actively sensitized animals. The animals are then challenged intravenously with antigen mixed with a dye such as Evans' Blue. The increased capillary permeability caused by the antigen-antibody reaction causes the dye to leak from the site of the antibody injection. The test animals are then asphyxiated and the intensity of the reaction determined by measuring the diameter and intensity of the blue coloration on the inner surface of the animals' skin.
The PCA test is a measure of the anti-allergic (especially anti-asthmatic) activity of a compound. Compounds which inhibit a positive PCA test induced by the rat immunochemical counterpart of human immunoglobulin E (IgE), or reagin, are considered to have anti-allergic activity (C. Mota, Ann. N.Y. Acad. Sci., 103, 264 1963). (Reagin is primarily immunoglobulin E [IgE] and is the principal immunoglobulin responsible for allergic asthma, anaphylaxis, hay fever, food sensitivities and certain manifestations of drug sensitivities, although recent evidence ascribes to the IgG class of antibodies a significant role in the mediation of allergic diseases). Such compounds when administered to a sensitized subject, human or animal, prior to the time when the subject comes into contact with antigens or substances to which it is allergic, will prevent the allergic reaction which would otherwise occur. They, therefore, provide a method for the prophylactic treatment of allergy or anaphylactic reactions of a reagin mediated nature.
To put it another way, such compounds block the release of mediators resulting from the antigen-antibody (allergic) reaction as illustrated in the PCA test using rat homocytotropic antibody--a known correlate of human reaginic antibody. Inhibition of reaginic antigen-antibody reactions in rats, the test animal of the PCA test, is regarded as representative of inhibition of human reaginic antigen-antibody reactions which occur during allergic episodes.
The ability of agents to interfere with PCA reactions is measured in male Charles River Wistar rats, 170-210 g. Reaginic antiserum, rich in IgE antibodies, is prepared according to Petillo et al., Int. Arch. Allergy, 44, 309 (1973). Hyperimmune antiserum rich in IgG antibodies to hen egg albumin is prepared according to Orange et al., J. Exptl. Med., 127, 767 (1968). Forty-eight hours prior to antigen challenge, the reaginic antiserum is injected intradermally (i.d.) into the shaved skin of a normal rat's back; 5 hours before challenge the hyperimmune antisera is similarly injected. At a third site 60 mcg. histamine dihydrochloride and 0.5 mcg. serotonin creatinine sulfate are injected i.d. just prior to antigen challenge as a check for antihistaminic, antiserotonin and unspecific types of blockage; the compounds of the instant invention or saline are then administered i.v. and immediately followed by the challenge of 5 mg. egg albumen and 2.5 mg. Evans' Blue dye in saline. In the case of oral administration Evans' Blue dye and egg albumin are given 5 minutes after administration of the drug. Thirty minutes later the animals are asphyxiated using chloroform and the skin of the back removed and reversed for observation. A score is assigned each injection site equal to the product of the diameter of the site in mm. and a grade of 0.1, 0.5, 1, 2, 3 or 4 proportional to intensity of dye coloration. The scores for a given injection site are summed for each group of five animals and compared to the saline treated controls. The difference is expressed as percent blockage due to the compound employed. […]

[2] = Oral absorption and plasma concentrations, dogs; type: in vivo, dog
Protocol: (§1) This is supported by the observations of plasma concentrations of 3 to 7 μg/ml one hour after oral administration of III, 50 to 300 mg/kg.

Stability = type: physicochemical; conditions: solid state, with standard diluents / inert ingredients, or in solution
rats = assay: Oral toleration, 10 days, rats; type: in vivo, rat; conditions: 10 days, 50, 150 and 300 mg/kg/day
Protocol: Rats were given III orally by gavage at doses of 50, 150 and 300 mg/kg/day for 10 days.

[3] = Plasma levels after repeated daily dosing; type: in vivo; conditions: after the eighth daily dose of III
Protocol: as §1

[4] = system: cold-restraint stress gastric ulcer; assay: Cold-restraint stressed rat ulcer assay; type: in vivo
Protocol: The effectiveness of the products of this invention as anticulcer agents is determined by the so-called cold-restraint stressed rat assay. In this test non-fasted female rats (Charles River C-D strain) weighing 70-140 gms. are administered the drug or carrier (control animals) intraperitoneally (in saline solution containing 1% carboxymethylcellulose and 0.1% Tween 80) or orally (in water) three hours before being lightly anesthetized with ether and taped in the supine position to individual sheets of plexiglass. After recovery from anesthesia, the restrained animals are positioned horizontally in a refrigerator maintained at 10°-12° C. and three hours later sacrificed by cervical dislocation. The abdomen of each rat is opened, the pylorus clamped, the stomach inflated with saline via an oral tube, the esophagus clamped and the stomach excised. The stomachs are placed in a 0.4% formaldehyde solution for approximately 30 seconds to harden the outer layers and facilitate examination. Each stomach is then cut open along the greater curvature and the glandular portion (hind stomach) examined for damage. The number of gastric erosions, their severity and the color of the stomachs is recorded. […]

point mutations = assay: Ames test in vitro; type: cell-based
human lymphocytes = assay: Chromosomal breakage in human lymphocytes in vitro; type: cell-based; conditions: 1000, 100, 10 or 0 μg/ml
glucose tolerance = assay: Glucose tolerance in rats; type: in vivo, rat; conditions: 10, 30, or 100 mg/kg p.o. with glucose 1 g/kg p.o.
Source text: This effect may be due to a delayed absorption of glucose related to a possible effect on gastric emptying.

[5] = Cardiovascular effects in anesthetized dogs; type: in vivo, dog; conditions: dog, in vivo; cumulative intravenous doses; read-out: ratio of cardiovascular-effect dose to maximally effective intravenous antiallergy dose
[6] = system: blood pressure, heart rate and pressor responses; assay: Cardiovascular effects in anesthetized dogs; type: in vivo, dog; conditions: cumulative 5 and 15 mg/kg, i.v.
isolated rat monocytes = assay: Synthesis and release of SRC in isolated monocytes stimulated by an ionophore; type: cell-based

Compound: O=C(Nc1nnn[nH]1)c1cnc2sc3c(n2c1=O)CCCC3 [Compound III, N-(5-Tetrazolyl)-1-oxo-1H-cyclohexenothiazolo[3,2-a]pyrimidine-2-carboxamide]
- inhibition in vivo at 3 mg/kg ([1]; Rattus norvegicus, IgE, oral, 3 mg./kg., read-out: Oral Activity (% of Protection) in the PCA Test, IgE): 47%
- oral activity ([1]; oral): excellent oral activity
- dose range for antiallergy effects ([1]; rat, in vivo): 1 to 10 mg/kg
- plasma concentration ([2]; one hour after oral 50 to 300 mg/kg, 60 min): 9000 to 26000 ng/mL
- oral absorption ([2]; suspensions or capsules): absorbed readily after oral administration
- stability (Stability): highly stable in a pure solid state, as well as in the presence of standard pharmaceutical diluents and in solution; also recorded: exceptionally good stability
- pathological changes, gross and microscopic (liver, kidney, heart, lung) (rats; oral gavage): no resultant pathological changes
- clinical chemistry apart from serum glutamic-pyruvic transaminase (rats; oral): no changes in clinical chemistry were observed
- levels after the eighth daily dose relative to initial dose [3]: 2 to 4 times
- oral dose range of dose-related protection, cold-restraint stress ([4]; oral): 0.003 to 0.1 mg/kg
- potency in cold-restraint stress gastric ulcer procedure ([4]; rat, in vivo): extremely potent; also recorded: highly potent
- point mutations in Ames test (point mutations): did not induce point mutations
- drug-induced chromosomal breakage, human lymphocytes (human lymphocytes): failed to reveal any significant drug-induced chromosomal breakage
- glucose tolerance (glucose tolerance): apparent dose-dependent improvement in glucose tolerance
- selectivity ratio [5]: 5 to 15
- blood pressure [6]: transient hypotension
- heart rate [6]: variable changes in heart rate
- pressor responses to epinephrine and bilateral carotid occlusion [6]: diminished slightly
- synthesis and release of SRC (isolated rat monocytes): is not inhibited
